From patent US20080025960A1, “Detergents with stabilized enzyme systems” (priority 2006, published 2008)

How the values were obtained:
Format in all cases: biochemical
choline oxidase [1] = molecular target: T1, choline oxidase (Arthrobacter globiformis, UniProt Q7X2H8); assay: H2O2 in control buffer or AATCC liquid detergent stock with choline oxidase, choline and inhibitor; details: for H2O2 PPM: T = 0+, 12, 30 and 60, 1M choline chloride, 10U choline oxidase, 100 mM sodium bisulfite inhibitor (pH7)
T1 sequence (Q7X2H8 1-546): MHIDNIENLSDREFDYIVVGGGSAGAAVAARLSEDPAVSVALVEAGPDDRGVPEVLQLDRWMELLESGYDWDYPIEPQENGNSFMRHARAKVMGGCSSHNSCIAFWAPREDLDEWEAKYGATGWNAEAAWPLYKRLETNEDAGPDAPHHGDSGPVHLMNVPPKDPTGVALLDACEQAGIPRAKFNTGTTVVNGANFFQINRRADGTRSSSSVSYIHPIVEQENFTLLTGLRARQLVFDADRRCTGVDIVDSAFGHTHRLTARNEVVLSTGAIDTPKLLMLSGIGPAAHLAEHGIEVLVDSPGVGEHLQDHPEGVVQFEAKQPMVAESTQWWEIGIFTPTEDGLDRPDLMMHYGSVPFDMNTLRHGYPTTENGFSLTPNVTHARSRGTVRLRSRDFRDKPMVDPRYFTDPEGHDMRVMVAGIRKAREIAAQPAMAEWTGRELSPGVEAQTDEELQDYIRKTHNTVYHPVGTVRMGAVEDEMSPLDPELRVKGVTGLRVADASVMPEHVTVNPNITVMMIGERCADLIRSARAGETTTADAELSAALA
Experimental: In this Example, experiments conducted to assess the stabilization of choline oxidase in the presence of its substrate (i.e., choline) and an inhibitor (i.e., sodium bisulfite and 2-amino,2-methyl,1-propanol) is described. In these experiments, AATCC standard detergent was used.
(§1) The experiments were conducted as described in Example 1. Choline oxidase produces two moles of H2O2 per mole of choline. The results obtained in these experiments confirmed that choline oxidase was stable in AATCC detergent over 24 hour period tested in presence of choline and inhibitors. […] Upon dilution in wash liquor, detergent containing choline oxidase, choline chloride and an inhibitor (e.g., sodium hydrogen sulfite or 2-amino,2-methyl,1-propanol) produced H2O2 over time, as indicated in Table 5.

choline oxidase [2] = molecular target: T1, choline oxidase; assay: H2O2 in wash liquor with choline oxidase, choline chloride and inhibitor; details: 2 mM choline chloride, 0.02U choline oxidase, 0.2 mM sodium bisulfite inhibitor (pH7)
Experimental: as §1

glucose oxidase = molecular target: T2, glucose oxidase (Aspergillus niger, UniProt P13006); assay: Hydrogen peroxide generation by glucose oxidase after dilution of the mixture in laundry wash liquor, dipsticks; details: for Hydrogen Peroxide Generation, PPM H2O2 / H2O2 PPM: wash liquor, 1 mM glucose; for Hydrogen Peroxide Generation, PPM H2O2: 1 PPM oxidase; for character of glucose oxidase inhibition: inhibited at high substrate concentration in detergent, inhibition disappears upon dilution in wash water, concentration-dependent; for hydrogen peroxide produced: liquid detergent formulations after 3 weeks of storage with inhibitor, diluted in wash liquor; for H2O2 generated: wash liquor control containing buffer
T2 construct: purchased Genencor OXYGO L-5000
Experimental: In these experiments, 100 mM Tris pH 8.3 with 0.005% TWEEN®-100 surfactant was used as a positive control. The choice of pH 8.3 was based upon the measured pH of the AATCC detergent. Three two-ml tubes containing 0.990 g of AATCC detergent (lot # 01282004) and another three tubes with 0.990 g of control buffer were weighed. Then, 90 mg (500 mM) glucose substrate was added to each tube. […] All of the tubes were placed on a rotary plate for an hour to allow good mixing and solubilization of glucose into the detergent. Then, 6 tubes containing five-ml wash water (5 mM HEPES with 6 GPG, pH 8) were prepared. Next, 500 PPM (0.5 mg, 14.88 ul) glucose oxidase (OXYGO™ L-5000, 5379 U/ml; 33.6 mg/ml; Genencor) was added to six 2-ml tubes (three with glucose/bisulfite containing control buffers and three with glucose/bisulfite containing AATCC detergent). All of the tubes were then set on the rotary plate (60 rpm) at room temperature. H2O2 production was measured using dipsticks (peroxidase/ABTS), as described in Example 1, for t=0+ minutes, 12 minutes, and 30 minutes. Immediately after addition of the enzyme to the detergent and control mixtures, 10 ul of the mixture were removed and mixed with 5 ml of wash water. All of the tubes were also then checked for hydrogen peroxide using dipsticks at 12 and 30 minutes. With 5 ml wash liquor, the final glucose oxidase enzyme concentration was 1 PPM and the glucose concentration was 1 mM.
In these experiments, 100 mM Tris pH 8.3 with 0.005% TWEEN®-100 surfactant was used as a positive control. The choice of pH 8.3 was based upon the measured pH of the AATCC detergent. Three two-ml tubes containing 0.990 g of AATCC detergent (lot # 01282004) and another three tubes with 0.990 g of control buffer were weighed. Then, 90 mg (500 mM) glucose substrate was added to each tube. Then, 100, 50, and 10 mM sodium metabisulfite were added to each tube respectively (i.e., both control buffer and AATCC detergent-containing tubes). All of the tubes were placed on a rotary plate for an hour to allow good mixing and solubilization of glucose into the detergent. Then, 6 tubes containing five-ml wash water (5 mM HEPES with 6 GPG, pH 8) were prepared. Next, 500 PPM (0.5 mg, 14.88 ul) glucose oxidase (OXYGO™ L-5000, 5379 U/ml; 33.6 mg/ml; Genencor) was added to six 2-ml tubes (three with glucose/bisulfite containing control buffers and three with glucose/bisulfite containing AATCC detergent). All of the tubes were then set on the rotary plate (60 rpm) at room temperature. H2O2 production was measured using dipsticks (peroxidase/ABTS), as described in the above Examples, for t=0+ minutes, 12 minutes, and 30 minutes. Immediately after addition of the enzyme to the detergent and control mixtures, 10 ul of the mixture were removed and mixed with 5 ml of wash water. All of the tubes were also then checked for hydrogen peroxide using dipsticks at 12 and 30 minutes. With 5 ml wash liquor, the final glucose oxidase enzyme concentration was 1 PPM and the glucose concentration was 1 mM.

T2 sequence (P13006 17-605): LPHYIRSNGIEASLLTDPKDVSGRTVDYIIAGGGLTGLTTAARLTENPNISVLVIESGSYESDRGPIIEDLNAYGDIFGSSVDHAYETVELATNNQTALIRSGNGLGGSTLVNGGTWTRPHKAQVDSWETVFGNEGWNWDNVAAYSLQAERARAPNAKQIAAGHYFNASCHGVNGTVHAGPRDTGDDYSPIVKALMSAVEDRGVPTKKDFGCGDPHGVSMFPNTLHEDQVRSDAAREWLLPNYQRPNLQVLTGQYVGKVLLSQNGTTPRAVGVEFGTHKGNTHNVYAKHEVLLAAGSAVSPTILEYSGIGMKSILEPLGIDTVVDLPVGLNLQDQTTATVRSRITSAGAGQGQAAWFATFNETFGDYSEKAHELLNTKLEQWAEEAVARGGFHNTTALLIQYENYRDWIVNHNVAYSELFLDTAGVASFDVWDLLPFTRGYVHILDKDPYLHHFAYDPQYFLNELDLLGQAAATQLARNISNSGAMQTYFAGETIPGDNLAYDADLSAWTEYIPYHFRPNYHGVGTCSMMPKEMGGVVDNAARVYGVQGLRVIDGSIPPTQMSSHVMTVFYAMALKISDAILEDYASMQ

O=S([O-])O.[Na+] [bisulfite, sodium hydrogen sulfite]
H2O2 PPM (choline oxidase [1]; AATCC Detergent): 0 PPM | H2O2 PPM (choline oxidase [1]; Control Buffer): 0 PPM | premature generation of H2O2 in AATCC detergent stock (choline oxidase [1]; sodium hydrogen sulfite 100 mM concentration): able to stop premature generation of H2O2 | character of choline oxidase inhibition (choline oxidase [1]; sodium hydrogen sulfite at 100 mM concentration tested): reversible inhibitor | H2O2 PPM (choline oxidase [2]; AATCC Detergent, T = 0+): 1 PPM | H2O2 PPM (choline oxidase [2]; AATCC Detergent, T = 12 min): 10 PPM | H2O2 PPM (choline oxidase [2]; AATCC Detergent, T = 30 min): > 10 PPM | H2O2 PPM (choline oxidase [2]; AATCC Detergent, T = 60 min): 30 PPM | H2O2 PPM (choline oxidase [2]; Control Buffer, T = 0+): 1 PPM | H2O2 PPM (choline oxidase [2]; Control Buffer, T = 12 min): 10 PPM | H2O2 PPM (choline oxidase [2]; Control Buffer, T = 30 min): > 10 PPM | H2O2 PPM (choline oxidase [2]; Control Buffer, T = 60 min): 30 PPM | Hydrogen Peroxide Generation, PPM H2O2 (glucose oxidase; AATCC Detergent, T = 12 (second line so headed, after the T = 30 lines), 0.2 mM bisulfite): ˜10 PPM | Hydrogen Peroxide Generation, PPM H2O2 (glucose oxidase; AATCC Detergent, T = 12 min, 0.02 mM bisulfite): 3 PPM | Hydrogen Peroxide Generation, PPM H2O2 (glucose oxidase; AATCC Detergent, T = 12 min, 0.1 mM bisulfite): 3 PPM | Hydrogen Peroxide Generation, PPM H2O2 (glucose oxidase; AATCC Detergent, T = 12 min, 0.2 mM bisulfite): 3 PPM | Hydrogen Peroxide Generation, PPM H2O2 (glucose oxidase; AATCC Detergent, T = 30 min, 0.02 mM bisulfite): 10 PPM | Hydrogen Peroxide Generation, PPM H2O2 (glucose oxidase; AATCC Detergent, T = 30 min, 0.1 mM bisulfite): ˜10 PPM | Hydrogen Peroxide Generation, PPM H2O2 (glucose oxidase; Control Buffer, T = 12 (second line so headed, after the T = 30 lines), 0.2 mM bisulfite): ˜3 PPM | Hydrogen Peroxide Generation, PPM H2O2 (glucose oxidase; Control Buffer, T = 30 min, 0.02 mM bisulfite): 10 PPM | Hydrogen Peroxide Generation, PPM H2O2 (glucose oxidase; Control Buffer, T = 30 min, 0.1 mM bisulfite): ˜10 PPM | character of glucose oxidase inhibition (glucose oxidase): reversible inhibitor | hydrogen peroxide generated (glucose oxidase; wash liquor containing AATCC detergent, all three bisulfite inhibitor concentrations, 12 minutes): > 3 PPM | hydrogen peroxide generated (glucose oxidase; wash liquor with AATCC detergent, all three bisulfite inhibitor concentrations, 30 minutes): ~10 PPM

O=S([O-])S(=O)(=O)[O-].[Na+].[Na+] [sodium metabisulfite]
H2O2 PPM (glucose oxidase; AATCC Detergent, T = 12 min, 1 PPM enzyme, 0.2 mM sodium metabisulfite): 3 PPM | H2O2 PPM (glucose oxidase; AATCC Detergent, T = 30 min, 1 PPM enzyme, 0.2 mM sodium metabisulfite): ˜10 PPM | H2O2 PPM (glucose oxidase; AATCC Detergent, T = 60 min, 1 PPM glucose oxidase, 0.2 mM sodium metabisulfite): >10 PPM | H2O2 PPM (glucose oxidase; Control Buffer, T = 12 min, 1 PPM enzyme, 0.2 mM sodium metabisulfite (100 mM in formulation)): ~3 PPM | H2O2 PPM (glucose oxidase; Control Buffer, T = 12 min, 1 PPM enzyme, 0.2 mM sodium metabisulfite (100 mM in formulation), listed as sodium metabisulftie): 1 PPM | H2O2 PPM (glucose oxidase; Control Buffer, T = 30 min, 1 PPM enzyme, 0.2 mM sodium metabisulfite): 3 PPM | H2O2 PPM (glucose oxidase; Control Buffer, T = 60 min, 1 PPM glucose oxidase, 0.2 mM sodium metabisulfite): 10 PPM | character of glucose oxidase inhibition (glucose oxidase): reversible inhibitor | hydrogen peroxide produced (glucose oxidase; 12 minutes): 3 PPM | hydrogen peroxide produced (glucose oxidase; 30 minutes): ~10 PPM | hydrogen peroxide generated (glucose oxidase; wash liquor containing AATCC detergent, all three metabisulfite inhibitor concentrations, 12 minutes): > 3 PPM | H2O2 generated (glucose oxidase; 10 mM metabisulfite (formulation), 12 minutes): about 10 PPM | H2O2 generated (glucose oxidase; 50 mM metabisulfite (formulation), 12 minutes): about 10 PPM | hydrogen peroxide generated (glucose oxidase; wash liquor with AATCC detergent, all three metabisulfite inhibitor concentrations, 30 minutes): ~10 PPM
